Source: patent US4596873A, “1,4,5,6,7,8-Hexahydro-2-alkyl-4-aryl-5-oxo-1,7-naphthyridine-3-carboxyl ic acid aromatic esters and pharmaceutically acceptable acid addition salts thereof useful as antihypertensive agents” (American Home Products Corporation, priority 1985, dated 1986)

What was measured:
[1] = tested on: Ca^+2 -calmodulin dependent myosin light chain phosphorylation; assay: inhibition of Ca^+2-calmodulin dependent myosin light chain phosphorylation (MLCP); format: biochemical
Method: (§1) The data reported herein was obtained at a six minute time-point rather than the 1.5, 5 and 12 minute time points indicated in the superprecipitation assay of the Silver et al. paper.
(§2) The following examples illustrate the preparation of a representative number of compounds of this invention. After each example, and Ca^+2 antagonist activity of the compound is presented in terms of percent relaxation of aortic tissue (P.R.) at 10^-5 M concentration. […] Inhibition of superprecipitation (Antag. of Actin-Myosin interaction) is expressed as percent inhibition (mean±standard error of the mean for at least 3 separate experiments) at a compound concentration. In the same manner, inhibition of myosin light chain phosphorylation (Antag. of MLCP) is expressed as a percent inhibition at a compound concentration. Similarly, the antihypertensive activity is reported in terms of millimeters mercury (mmHg) systolic blood pressure (B.P.) reduction at the stated time post 50 mg/kg oral dosing or other dosing as indicated.

[2] = tested on: arterial actin-myosin interactions; assay: inhibition of superprecipitation (antagonism of arterial actin-myosin interaction); format: biochemical; conditions: six minute time-point, mean±SEM
Method: as §1, §2

[3] = tested on: spontaneously hypertensive rats; assay: decrease in systolic blood pressure of spontaneously hypertensive rats; format: in vivo, rat
[4] = tested on: isolated paced intact rabbit atria; assay: negative inotropic (cardiac depressant) effect in isolated paced intact rabbit atria; format: cell-based
Method: The potential for detrimental cardiac depressant (negative inotropic) effects of the compounds of this invention was assessed in isolated paced intact rabbit atria. Left and right atria (with nodal tissue excised) were suspended vertically in a jacketed (30° C.) organ bath containing 50 ml of PSS and aerated with 95% O2 /5% CO2. Muscles (N=5-9/compound) were stimulated at a frequency of 3 Hz with a WPI stimulator for a 60 minute equilibration period. Changes in isometric force were recorded as described for the aortic smooth muscle experiments,supra. Following equilibration, the test compound (or as a control, the ethanol vehicle) was added to the organ bath in a cumulative manner from doses ranging from 10^-9 M to 10^-5 M (10^-5 M was the maximum dose which could be attained due to the depressant effect of ethanol) and effects on developed isometric force were determined.
as §2

Row | SMILES | inhibition of myosin light chain phosphorylation (Antag. of MLCP) ([1]; 50 μM) [%] | inhibition of myosin light chain phosphorylation (Antag. of MLCP) ([1]; 100 μM) [%] | inhibition of superprecipitation (Antag. of Actin-Myosin) ([2]; 50 μM) [%] | inhibition of superprecipitation (Antag. of Actin-Myosin) ([2]; 100 μM) [%] | systolic blood pressure (B.P.) reduction ([3]; 25 mg/kg, 1.5 hours) [mmHg] | systolic blood pressure (B.P.) reduction ([3]; 25 mg/kg, 4 hours) [mmHg] | cardiac depression / negative inotropism (in words) [4] | further results
1 | CC1=C(C(=O)OCCOc2ccccc2)C(c2c(F)c(F)c(F)c(F)c2F)C2=C(CNCC2=O)N1 (single isomer, unassigned; (+)) [Example 4, (+)-1,4,5,6,7,8-Hexahydro-2-methyl-5-oxo-4-(pentafluorophenyl)-1,7-naphthyridine-3-carboxylic acid 2-phenoxyethyl ester] | 37 | 67 | 38 | 71 | -58 | -78 | – | IC25 (concentration which produces 25% inhibition of isometric force) ([4]; 3 Hz, cumulative 10^-9 M to 10^-5 M): 800 nM
2 | CC1=C(C(=O)OCCCCOc2ccccc2)C(c2c(F)c(F)c(F)c(F)c2F)C2=C(CNCC2=O)N1 (stereo not shown) [Example 21, 1,4,5,6,7,8-Hexahydro-2-methyl-5-oxo-4-(pentafluorophenyl)-1,7-naphthyridine-3-carboxylic acid 4-phenoxybutyl ester] | – | 77 | – | 80 | 0 | -49 | – | –
3 | CC1=C(C(=O)OCCOc2ccccc2)C(c2c(F)ccc(C)c2Cl)C2=C(CNCC2=O)N1 (stereo not shown) [Example 23, 4-(2-chloro-6-fluoro-3-methylphenyl)-1,4,5,6,7,8-hexahydro-2-methyl-5-oxo-1,7-naphthyridine-3-carboxylic acid 2-phenoxyethyl ester] | 18 | 56 | 23 | 62 | -22 | -31 | – | –
4 | CC1=C(C(=O)OCCOc2ccccc2)C(c2c(F)ccc(Cl)c2Cl)C2=C(CNCC2=O)N1 (stereo not shown) [Example 24, 4-(2,3-Dichloro-6-fluorophenyl)-1,4,5,6,7,8-hexahydro-2-methyl-5-oxo-1,7-naphthyridine-3-carboxylic acid 2-phenoxyethyl ester] | 50±2 | 68±1 | 54±3 | 72±1 | -50 | -70 | – | inhibition of myosin light chain phosphorylation (Antag. of MLCP) ([1]; 25 μM): 8±2%; inhibition of superprecipitation (Antag. of Actin-Myosin) ([2]; 25 μM): 9±2%; systolic blood pressure (B.P.) reduction ([3]; 5 mg/kg, 1.5 hours): -17 mmHg; systolic blood pressure (B.P.) reduction ([3]; 5 mg/kg, 4 hours): -26 mmHg; systolic blood pressure (B.P.) reduction ([3]; 10 mg/kg, 1.5 hours): -6 mmHg; systolic blood pressure (B.P.) reduction ([3]; 10 mg/kg, 4 hours): -26 mmHg
5 | COc1ccc(CCN(C)CCCC(C#N)(c2ccc(OC)c(OC)c2)C(C)C)cc1OC (stereo not shown) [Verapamil, reference compound] | – | – | – | – | – | – | direct negative inotropism | –
6 | CCOC(=O)C1=C(C)NC(C)=C(C(=O)OC)C1c1cccc(Cl)c1Cl (stereo not shown) [felodipine] | – | – | – | – | – | – | direct negative inotropism | IC25 ([4]; Oryctolagus cuniculus, 3 Hz, cumulative 10^-9 M to 10^-5 M, read-out: IC25 (concentration which produces 25% inhibition of isometric force)): 800 nM
7 | COC(=O)C1=C(C)NC(C)=C(C(=O)OC)C1c1ccccc1[N+](=O)[O-] [nifedipine, reference compound] | – | – | – | – | – | – | direct negative inotropism | –
8 | CCOC(=O)C1=C(C)NC(C)=C(C(=O)OC)C1c1cccc([N+](=O)[O-])c1 (stereo not shown) [nitrendipine, reference compound] | – | – | – | – | – | – | direct negative inotropism | –
